Experimental data: US4058520A, “Aminoalkylthiopyridazine compounds” (The Dow Chemical Company, priority 1976, dated 1977)
Read-outs that look alike come from different tables or passages of the source.

Experiments:
apple scab = assay: effectiveness against apple scab; type: in vivo; conditions: 400 parts per million
[1] = system: ADP induced aggregation of blood platelets (rat platelet rich plasma); assay: inhibition of ADP induced platelet aggregation in vitro (rat platelet rich plasma, change in optical density; Born); type: cell-based; conditions: for IC50: 10 min, read-out: IC50 ADP (concentration at which ADP induced platelet aggregation is inhibited by 50%)
Protocol: Platelet aggregation was initiated in vitro by 0.125 to 0.25 mg/ml of ADP. Rat blood was collected into 3.0% trisodium citrate solution (1:10) by cardiac puncture under methoxyfurane anesthesia. The blood was centrifuged at 120 g for 10 minutes at room temperature and the supernatant platelet rich plasma was removed and diluted with lactated Ringer's solution containing the pyridazine aggregation inhibiting agent (1.0:1.5). Samples of 1.0 ml were pipetted into plastic test tubes and incubated for 10 minutes. Plastic equipment was used for all procedures. The concentration of the pyridazine compound in micromoles inhibiting ADP aggregation by 50% (IC50) was determined using changes in optical density as an indicium of platelet aggregation.
*Concentration in micromoles at which ADP induced platelet aggregation is […]

rootknot nematode = assay: killing and control of rootknot nematode; type: in vivo; conditions: 2.4 pounds per 100 cu. ft. of soil
tobacco black root rot = assay: fungicide, killing and control of tobacco black root rot; type: in vivo; conditions: 25 parts per million
[2] = system: platelet aggregation / emboli formed in response to ADP; assay: protection of mice from ADP challenge (inclined screen); type: in vivo; conditions: of ten mice; 60 mgs per kilogram orally; ADP via tail vein one hour after
Protocol: Emboli formed in the vascular system of mice in response to the administration of ADP cause a stroke-like response that prevents mice from staying on an inclined screen. To illustrate the platelet aggregation inhibition effect of the aminoalkylthiopyridazines, ten mice were dosed orally with 60 mgs per kilogram of body weight of the compound 6-chloro-3-(2-diisopropylamino)ethylthio)pyridazine. One hour after compound administration, the mice were challenged with ADP (0.05 M mole/kg) by injection via the tail vein and placed on an inclined screen. The unprotected control mice were unable to maintain their position on the screen.

[3] = rat platelet rich plasma, 0.125 to 0.25 mg/ml of ADP, incubated 10 minutes

Row | Structure (SMILES) | IC50 [1, 3] [mM] | further results
1 | Clc1ccc(SCCN2CCCCC2)nn1 [3-Chloro-6-(2-(1-piperidinyl)ethylthio)pyridazine] | 3.3 | –
2 | Clc1ccc(SCCN2CCOCC2)nn1 [3-Chloro-6-(2-(4-morpholinyl)ethylthio)pyridazine] | – | effective in the killing and control of rootknot nematode (rootknot nematode): 90%; IC50 ([1]; Rattus norvegicus, Platelet): 2.6 mM
3 | Clc1ccc(SCCN2CCCCCC2)nn1 [3-Chloro-6-(2-(hexamethyleneimino)ethylthio)pyridazine] | 2.43 | –
4 | Clc1ccc(SCCCN2CCOCC2)nn1 [3-Chloro-6-(3-(4-morpholinyl)propylthio)pyridazine] | 10.5 | –

More lines, main results first:

Row | IC50 [1, 3] [mM] | Structure (SMILES) | further results
5 | 13.8 | c1cc(SCCN2CCOCC2)nnc1SCCN1CCOCC1 [3,6-Bis(2-(4-morpholinyl)ethylthio)pyridazine] | effective against apple scab (apple scab): 90%
6 | 3.71 | CCN(CC)CCCSc1ccc(Cl)nn1 [3-Chloro-6-(3-(diethylamino)propylthio)pyridazine] | effective as a fungicide in the killing and control of tobacco black root rot (tobacco black root rot): 100%
7 | 2.4 | CN(C)CCCSc1ccc(Cl)nn1 [3-Chloro-6-(3-dimethylamino)propylthio)pyridazinium methane sulfonate] | –
8 | 0.14 | CC(C)N(CCSc1ccc(Cl)nn1)C(C)C [6-Chloro-3-(2-(diisopropylamino)ethylthio)pyridazine] | mice protected from the ADP challenge and remaining on the screen [2]: 10 mice; platelet aggregation inhibiting activity (in words) ([1]; Table I data): highly effective
